Literature values in patent US20130023590A1, “AQUEOUS COMPOSITIONS COMPRISING RESVERATROL AND METHODS FOR MAKING THEM” (priority 2011, published 2013).
Read-outs that look alike come from different tables or passages of the source.

Assays:
[1] = for solubility in water: with heating
[2] = system: yeast; details: in the absence of caloric restriction
[3] = oral, humans

solubility in organic solvents ([1]; ethanol, dimethyl sulfoxide or dimethyl formamide): approximately 65 mg/ml
solubility in water ([1]; Sigma-Aldrich Product Information Sheet): 3 mg/100 ml
solubility in water ([1]; same value restated in ppm): 30 ppm
bioavailability [3]: very low
Compound: Oc1ccc(C=Cc2cc(O)cc(O)c2)cc1 [resveratrol, 3,4′,5-trihydroxystilbene]
extension of replicative lifespan of yeast [2]: 70%
